Here are results for 3 compounds from patent US10456443B2, “Peptidyl calcineurin inhibitors” (OHIO STATE INNOVATION FOUNDATION, priority 2014, dated 2019).

Non-standard residues stand in square brackets, D forms with d. Residues, ends and D or L forms follow the SMILES beside them. Tle = CC(C)(C)[C@H](N)C(=O)O

Test [1] concerns the target T1, calcineurin (CN) (Homo sapiens, UniProt Q08209). The following applies: read-out: IC50, inhibition of the binding of FITC-ZIZIT to CN; FITC-ZIZIT 100 nM, CN 150 nM, unlabeled competing peptide 0-20 μM.
Test [2] has as its target T1, calcineurin (CN).
The subject of the next test is macrophage cells. Description: Inflammatory cytokine production in macrophage cells with LPS stimulation. The class given is cell-based.
Test [3] concerns HeLa cells stably transfected with GFP-NFAT. Description: GFP-NFAT translocation assay, live-cell confocal microscopy. The following applies: 500 nM peptide, 2 h preincubation, 10 min ionomycin stimulation.
Test [4] in a line: Cellular uptake of cell penetrating peptides. It is filed as cell-based. The following applies: versus R11.

T1 sequence (Q08209 2-347 limits assumed): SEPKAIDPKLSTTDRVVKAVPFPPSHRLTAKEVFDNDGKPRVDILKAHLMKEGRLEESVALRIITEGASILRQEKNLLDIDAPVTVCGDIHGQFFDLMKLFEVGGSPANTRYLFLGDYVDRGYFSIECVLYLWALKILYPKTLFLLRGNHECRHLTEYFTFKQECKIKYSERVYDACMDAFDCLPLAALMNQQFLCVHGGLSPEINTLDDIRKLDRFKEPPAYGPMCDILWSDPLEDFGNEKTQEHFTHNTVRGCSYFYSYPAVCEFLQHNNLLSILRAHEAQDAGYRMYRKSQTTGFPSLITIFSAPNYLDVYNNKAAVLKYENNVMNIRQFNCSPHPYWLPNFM

In the case of `CC[C@H](C)[C@H](NC(=O)[C@@H](NC(=O)[C@@H](NC(=O)[C@@H](NC(=O)[C@@H]1CCCN1C(=O)[C@H](Cc1c[nH]cn1)NC(=O)[C@@H]1CCCN1C(=O)CN)C(C)(C)C)[C@@H](C)CC)C(C)(C)C)C(=O)N[C@H](C(=O)NCC(=O)N1CCC[C@H]1C(=O)N[C@@H](Cc1c[nH]cn1)C(=O)N[C@@H](CCC(=O)O)C(=O)N[C@@H](CCC(=O)O)C(N)=O)[C@@H](C)O` [ZIZIT, GPHPZIZITGPHEE] (H-GPHP[Tle]I[Tle]ITGPHEE-NH2), the 50% inhibitory concentration (IC50) – broadly, the concentration at which inhibition is half-maximal – at calcineurin (CN) [1] is 280 ± 90 nM. Besides, the “fold higher affinity for CN than VIVIT” value on calcineurin (CN) [2] (ZIZIT versus VIVIT) is on record as 10 fold. In addition, at calcineurin (CN) [2] (read-out: KD against CN, FA assay, N-terminal 5(6)-SFX labeled peptides (100 nM)), the Kd (as a rule, the constant that tells how readily two partners part at equilibrium) turned out to be 43 ± 12 nM.

As to “Ac-RRRRRRRRRRRC-SPDP-GPHPZIZITG-Cys(Ψ^Me,MePro)-HEEG-Propyl [R11-ZIZIT-cisPro]”, the “attenuating the production of inflammatory cytokines” value in the test with macrophage cells (macrophages, 1 μM, compared with 50 μM R11-VIVIT) is “significantly more effective than 50 μM R11-VIVIT”. Besides, the “fold more potent than R11-VIVIT in cellular assays” value in the test with macrophage cells (versus R11-VIVIT) is “approximately 100 fold”. Besides, the “inhibition of the nuclear translocation of GFP-NFAT” value in test [3] is recorded as about 95%.

As for cyclo(fΦRrRrQ) [CP9], the “fold more active than R11 for cellular uptake” value in test [4] is recorded as “approximately 12 fold”.
